Measured values from ChEMBL document CHEMBL4831530, “Exploring Marine-Derived Ascochlorins as Novel Human Dihydroorotate Dehydrogenase Inhibitors for Treatment of Triple-Negative Breast Cancer” (J Med Chem, 2021).
pIC50: −log10 of the molar value. Calls of active or inactive are those of the source. The rule behind the calls is not given here.

Key:
MDA-MB-231 [1] = test: Cytotoxicity against human MDA-MB-231 cells assessed as reduction in cell viability incubated for 24 hrs by CellTiter-Glo luminescent assay; assay type: functional, cell-based
MDA-MB-468 [2] = test: Cytotoxicity against human MDA-MB-468 cells assessed as reduction in cell viability incubated for 24 hrs by CellTiter-Glo luminescent assay; assay type: functional, cell-based
[3] = biological target: Dihydroorotate dehydrogenase (quinone), mitochondrial (Homo sapiens, UniProt Q02127); test: Inhibition of recombinant N-terminal His-tagged human DHODH (31 to 395 residues) expressed in Escherichia coli using DL-dihydroorotic acid as substrate and Q0 as coenzyme by DCIP based assay
MDA-MB-231 [4] = test: Induction of apoptosis in human MDA-MB-231 cells assessed as increase in apoptotic cells incubated for 2 days by annexin-V/FITC propidium iodide staining based flow cytometry analysis; assay type: functional, cell-based; conditions: time 2.0 day
MDA-MB-468 [5] = test: Induction of apoptosis in human MDA-MB-468 cells assessed as increase in apoptotic cells incubated for 2 days by annexin-V/FITC propidium iodide staining based flow cytometry analysis; assay type: functional, cell-based; conditions: time 2.0 day
MDA-MB-231 [6] = test: Inhibition of cell proliferation in human MDA-MB-231 cells at <=10 uM incubated for 4 days in presence of uridine by CellTiter-Glo luminescent assay; assay type: functional, cell-based; conditions: dose microM <=10, time 4.0 day
MDA-MB-468 [7] = test: Inhibition of cell proliferation in human MDA-MB-468 cells at <=10 uM incubated for 4 days in presence of uridine by CellTiter-Glo luminescent assay; assay type: functional, cell-based; conditions: dose microM <=10, time 4.0 day
[8] = Toxicity in NOD/SCID mouse xenografted with patient-derived breast cancer cells assessed as effect on body weight loss at 15 to 60 mg/kg, ip administered 5 times a week and measured after 21 days; assay type: organism-based; conditions: in vivo, 504 h, dose 15-60 mg/kg, time 21 day
[9] = Toxicity in NOD/SCID mouse xenografted with patient-derived breast cancer cells assessed as effect on organ damage at 15 to 60 mg/kg, ip administered 5 times a week and measured after 21 days by hematoxylin and eosin staining based analysis; assay type: organism-based; conditions: in vivo, 504 h, dose 15-60 mg/kg, time 21 day
Breast cancer cell line = test: Antitumor activity against patient-derived breast cancer cells xenografted in NOD/SCID mouse assessed as tumor growth suppression at 20 mg/kg, ip administered every 2 days and measured after 21 days; assay type: functional, organism-based; conditions: Homo sapiens, time 21.0 day
[10] = Toxicity in NOD/SCID mouse xenografted with patient-derived breast cancer cells assessed as body weight loss at 2.5 to 10 mg/kg, ip administered 5 times a week and measured after 16 days; assay type: organism-based; conditions: in vivo, 384 h, dose 2.5-10 mg/kg, time 16 day
[11] = Toxicity in NOD/SCID mouse xenografted with patient-derived breast cancer cells assessed as liver injury at 2.5 to 10 mg/kg, ip administered 5 times a week and measured after 16 days by hematoxylin and eosin staining based analysis; assay type: organism-based; conditions: in vivo, 384 h, dose 2.5-10 mg/kg, time 16 day
LNCaP C4-2B = test: Cytotoxicity against human LNCaP C4-2B cells assessed as reduction in cell viability incubated for 24 hrs by CellTiter-Glo luminescent assay; assay type: functional, cell-based
143B = test: Cytotoxicity against human 143B cells assessed as reduction in cell viability incubated for 24 hrs by CellTiter-Glo luminescent assay; assay type: functional, cell-based
HL-60 = test: Cytotoxicity against human HL-60 cells assessed as reduction in cell viability incubated for 24 hrs by CellTiter-Glo luminescent assay; assay type: functional, cell-based
MDA-MB-231 [12] = test: Induction of apoptosis in human MDA-MB-231 cells assessed as increase in cleaved PARP1 level measured after 2 days by Western blot analysis; assay type: functional, cell-based; conditions: dose 0.5-2 µM, time 2.0 day
MDA-MB-468 [13] = test: Induction of apoptosis in human MDA-MB-468 cells assessed as increase in cleaved PARP1 level measured after 2 days by Western blot analysis; assay type: functional, cell-based; conditions: dose 0.5-2 µM, time 2.0 day
MDA-MB-231 [14] = test: Induction of apoptosis in human MDA-MB-231 cells assessed as increase in cleaved caspase7 level measured after 2 days by Western blot analysis; assay type: functional, cell-based; conditions: dose 0.5-2 µM, time 2.0 day
MDA-MB-468 [15] = test: Induction of apoptosis in human MDA-MB-468 cells assessed as increase in cleaved caspase7 level measured after 2 days by Western blot analysis; assay type: functional, cell-based; conditions: dose 0.5-2 µM, time 2.0 day
[16] = Antitumor activity against patient-derived breast cancer cells xenografted in NOD/SCID mouse assessed as tumor growth suppression at 5 mg/kg, ip administered 5 times a week and measured after 16 days relative to control; assay type: functional; conditions: Homo sapiens, Breast cancer cell line, 384 h, time 16 day
[17] = Antitumor activity against patient-derived breast cancer cells xenografted in NOD/SCID mouse assessed as reduction in tumor volume at 5 mg/kg, ip administered 5 times a week and measured after 16 days relative to control; assay type: functional, Homo sapiens, Breast cancer cell line; design: scale not given: the % may be the effect or the level left; conditions: time 16 day
[18] = Toxicity in NOD/SCID mouse xenografted with patient-derived breast cancer cells assessed as effect on body weight loss at 5 mg/kg, ip administered 5 times a week and measured after 16 days; assay type: organism-based; conditions: in vivo, 384 h, time 16 day
[19] = Toxicity in NOD/SCID mouse xenografted with patient-derived breast cancer cells assessed as effect on organ damage at 5 mg/kg, ip administered 5 times a week and measured after 16 days by hematoxylin and eosin staining based analysis; assay type: organism-based; conditions: in vivo, 384 h, time 16 day

Dihydroorotate dehydrogenase (quinone), mitochondrial, sequence (Q02127 whole entry, the tested form may be a part): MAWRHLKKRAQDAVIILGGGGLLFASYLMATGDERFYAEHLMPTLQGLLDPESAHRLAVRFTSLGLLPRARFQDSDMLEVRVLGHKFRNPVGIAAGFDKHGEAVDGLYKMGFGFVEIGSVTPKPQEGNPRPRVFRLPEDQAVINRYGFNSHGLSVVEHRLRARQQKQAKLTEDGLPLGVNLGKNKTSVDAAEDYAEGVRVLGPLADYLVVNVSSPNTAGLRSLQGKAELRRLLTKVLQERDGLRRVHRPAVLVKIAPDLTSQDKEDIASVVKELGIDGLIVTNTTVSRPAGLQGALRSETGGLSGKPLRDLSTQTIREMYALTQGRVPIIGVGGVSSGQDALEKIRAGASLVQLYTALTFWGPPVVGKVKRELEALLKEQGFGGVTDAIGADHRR

Compound | pIC50 (MDA-MB-231 [1]; Homo sapiens, MDA-MB-231, 24 h) | pIC50 (MDA-MB-468 [2]; Homo sapiens, MDA-MB-468, 24 h) | pIC50 [3] | also measured
C/C(=C\C[C@@]1(C)[C@H](C)CCC(=O)[C@@H]1C)[C@@H](O)Cc1c(O)c(Cl)c(C)c(C=O)c1O | 4.39 | 4.82 | 5.33 | –
C/C(=C\Cc1c(O)c(Cl)c(C)c(C=O)c1O)CC[C@H]1C(C)(C)C(=O)CC[C@@]1(C)O | < 4.22 | < 4.22 | 4.96 | –
CC(=O)O[C@@H](CC/C(C)=C/CC/C(C)=C/Cc1c(O)c(Cl)c(C)c(C=O)c1O)C(C)(C)O | 5.13 | 5.22 | 4.52 | Activity (MDA-MB-231 [4]): Dose-Dependent Effect; Activity (MDA-MB-468 [5]): Dose-Dependent Effect; inhibition (MDA-MB-231 [6]): inactive; inhibition (MDA-MB-468 [7]): inactive; Activity [8]: Non-Toxic; Activity [9]: Non-Toxic
O=c1[nH]cc(F)c(=O)[nH]1 [FLUOROURACIL] | 4.82 | < 4.70 | – | –
C/C(=C\Cc1c(O)c(Cl)c(C)c(C=O)c1O)CC/C=C(\C)CC[C@@H]1OC1(C)C | 4.62 | 4.80 | 5.80 | –
C=C1CCC(=O)C(C)(C)[C@@H]1CC/C(C)=C/Cc1c(O)c(Cl)c(C)c(C(=O)O)c1O | < 4.22 | < 4.22 | 4.82 | –
C/C(=C\Cc1c(O)c(Cl)c(C)c(C=O)c1O)CC/C=C(\C)CCC(=O)C(C)(C)O | < 4.22 | < 4.22 | 5.03 | –
C/C(=C\Cc1c(O)c(Cl)c(C)c(C=O)c1O)CC/C=C(\C)CC[C@H](O)C(C)(C)O | 4.64 | 4.70 | 5.43 | –
C/C(=C\Cc1c(O)c(Cl)c(C)c(C=O)c1O)CC[C@H]1C(C)(C)C(=O)CC[C@]1(C)O | < 4.22 | < 4.22 | 4.47 | –
C=C(C)[C@@H](O)CC/C(C)=C/CC/C(C)=C/Cc1c(O)c(Cl)c(C)c(C=O)c1O | 5.48 | 5.77 | 6.41 | –
C/C(=C\Cc1c(O)c(Cl)c(C)c(C=O)c1O)[C@H](O)C[C@@]1(C)[C@H](C)CCC(=O)[C@@H]1C | 4.42 | 4.35 | 5.19 | –
C/C(=C\Cc1c(O)c(Cl)c(C)c(C=O)c1O)CC/C(C)=C(\C)C(C)CCCO (stereo not given) | 4.92 | 5.12 | 4.49 | –
C/C(O)=C(\C#N)C(=O)Nc1ccc(C(F)(F)F)cc1 [TERIFLUNOMIDE] | 4.85 | < 4.70 | – | inhibition (Breast cancer cell line): Active
C/C(=C\Cc1c(O)cc(C)c(C=O)c1O)CC/C=C(\C)CCC(=O)C(C)(C)O | < 4.22 | 4.24 | 5.10 | –
C/C(=C\Cc1c(O)c(Cl)c(C)c(C=O)c1O)CC/C=C(\C)[C@@H]1C[C@H](O)C(C)(C)O1 | 4.92 | 4.96 | 6.14 | –
C/C(=C\Cc1c(O)c(Cl)c(C)c(C(=O)O)c1O)CC/C=C(\C)CC[C@H](O)C(C)(C)O | < 4.22 | 4.31 | 4.70 | –
Cc1c(Cl)c2c(c(O)c1C=O)C[C@H]([C@@](C)(O)/C=C/[C@@]1(C)[C@H](C)CCC(=O)[C@@H]1C)O2 | 4.60 | 4.59 | < 4.22 | –
C=C(/C=C/[C@@]1(C)[C@H](C)CCC(=O)[C@@H]1C)[C@H](O)Cc1c(O)c(Cl)c(C)c(C=O)c1O | 4.35 | 4.47 | 5.41 | –
CC(/C=C/[C@@]1(C)[C@H](C)CCC(=O)[C@@H]1C)=C\Cc1c(O)c(Cl)c(C)c(C=O)c1O [ASCOCHLORIN] | 5.66 | 5.96 | 5.89 | –
Cc1c(-c2ccc(-c3ccccc3F)cc2)nc2ccc(F)cc2c1C(=O)O [BREQUINAR] | – | – | – | pIC50 (MDA-MB-231 [1]; mda-mb-231): 6.51; pIC50 (MDA-MB-468 [2]; mda-mb-468): 7.09; Activity [10]: Toxic; Activity [11]: Toxic
C/C(=C\Cc1c(O)c(Cl)c(C)c(C=O)c1O)CC/C=C(\C)[C@@H]1CC(=O)C(C)(C)O1 [ASCOFURANONE] | 5.28 | 5.15 | 5.27 | –
CC(/C=C/[C@@]1(C)[C@H](C)CCC(=O)[C@@H]1C)=C\Cc1c(O)cc(C)c(C=O)c1O | < 4.22 | 4.42 | 4.38 | –
C=C1CC[C@H](O)C(C)(C)[C@@H]1CC/C(C)=C/Cc1c(O)c(Cl)c(C)c(C=O)c1O | 6.19 | 6.32 | 7.13 | Activity (LNCaP C4-2B): Dose-Dependent Effect; Activity (143B): Dose-Dependent Effect; Activity (HL-60): Dose-Dependent Effect; Activity (MDA-MB-231 [4]): Dose-Dependent Effect; Activity (MDA-MB-468 [5]): Dose-Dependent Effect; Activity (MDA-MB-231 [12]): Dose-Dependent Effect; Activity (MDA-MB-468 [13]): Dose-Dependent Effect; Activity (MDA-MB-231 [14]): Dose-Dependent Effect; Activity (MDA-MB-468 [15]): Dose-Dependent Effect; inhibition (MDA-MB-231 [6]): inactive; inhibition (MDA-MB-468 [7]): inactive; inhibition in vivo at 5 mg/kg [16]: 51.7%; Activity [17]: 37.41%; Activity [18]: Non-Toxic; Activity [19]: Non-Toxic
Cc1c(Cl)c(O)c(C[C@@H]2[C@@]3(C)CC[C@H](O)C(C)(C)[C@@H]3CC[C@@]2(C)O)c(O)c1C=O | < 4.22 | < 4.22 | 4.51 | –
CC(/C=C/[C@@]1(C)[C@H](C)CC[C@@H](O)[C@@H]1C)=C\Cc1c(O)c(Cl)c(C)c(C=O)c1O | < 4.22 | < 4.22 | 4.89 | –
C/C(=C\Cc1c(O)cc(C)c(C=O)c1O)CC/C=C(\C)CC[C@H](O)C(C)(C)O | < 4.22 | 4.54 | 5.30 | –
C/C(=C\Cc1c(O)c(Cl)c(C)c(C=O)c1O)CC[C@@]1(C)[C@H](C)CCC(=O)[C@@H]1C [ILICICOLIN C] | 4.47 | 4.89 | 5.72 | –
C/C(=C\Cc1c(O)cc(C)c(C=O)c1O)CC[C@@]1(C)[C@H](C)CCC(=O)[C@@H]1C [ILICICOLIN F] | 4.59 | 4.57 | 4.96 | –
